Assay results taken from patent publication US9018233B2, “Diaminoaryl derivatives substituted by carbamate and pesticidal composition containing same” (Kyung Nong Corporation, priority 2012, dated 2015).

These compounds were tested on Tobacco Cutworm Moth (Spodoptera litura) (assay: Insecticidal activities against tobacco cutworm moth measured by leaf-dip method). Conditions: 96 h, 100 ppm, after 4 days, 2nd instar larvae, leaf-dip, read-out: percent control value.
Assay type: in vivo
Protocol: In this test, larvae descended from tobacco cutworm moths (Spodoptera litura), which had been collected in 2009 near Gyeongju area and reared in the laboratory, were used. […] […] The Petri dish was stored under light condition 16:8 hours, 25±1° C. and RH 50-60%, and then the number of larvae survived were counted 24, 48, 72 and 96 hours after the inoculation. As shown in Equations 1 and 2 above, the survival rate was calculated by calibrating the larvae density after treatment with the larvae density before treatment, and the control value is calculated by subtracting the survival rate in the treatment group from the survival rate in the control group and dividing the result by the survival rate in the control group.

Q: Which pest or weed control at 100 ppm does the source give for CC(C)COC(=O)Nc1cc(Cl)cc(Cl)c1NC(=O)c1cc(Br)nn1-c1ncccc1Cl [Example 4, isobutyl (2-(3-bromo-1-(3-chloropyridin-2-yl)-1H-pyrazole-5-carboxamido)-3,5-dichlorophenyl)carbamate] here?
A: ≥ 80%

Q: With COC(=O)Nc1cc(Cl)cc(C)c1NC(=O)c1cc(Br)nn1-c1ncccc1Cl [Example 11, methyl (2-(3-bromo-1-(3-chloropyridin-2-yl)-1H-pyrazole-5-carboxamido)-5-chloro-3-methylphenyl)carbamate] as the compound, how does the pest or weed control at 100 ppm read?
A: ≥ 80%

Q: For CCOC(=O)Nc1cc(Cl)cc(C)c1NC(=O)c1cc(Br)nn1-c1ncccc1Cl [Example 21, ethyl (2-(3-bromo-1-(3-chloropyridin-2-yl)-1H-pyrazole-5-carboxamido)-5-chloro-3-methylphenyl)carbamate], which pest or weed control at 100 ppm is on record?
A: ≥ 80%

Q: With CCCOC(=O)Nc1cc(Cl)cc(C)c1NC(=O)c1cc(Br)nn1-c1ncccc1Cl [Example 22, propyl (2-(3-bromo-1-(3-chloropyridin-2-yl)-1H-pyrazole-5-carboxamido)-5-chloro-3-methylphenyl)carbamate] as the compound, how does the pest or weed control at 100 ppm read?
A: ≥ 80%

Q: With COC(=O)Nc1cc(C#N)cc(C)c1NC(=O)c1cc(Br)nn1-c1ncccc1Cl [Example 33, methyl (2-(3-bromo-1-(3-chloropyridin-2-yl)-1H-pyrazole-5-carboxamido)-5-cyano-3-methylphenyl)carbamate] as the compound, how does the pest or weed control at 100 ppm read?
A: ≥ 80%

Q: With COC(=O)Nc1cc(Br)cc(Br)c1NC(=O)c1cc(Br)nn1-c1ncccc1Cl [Example 40, methyl (3,5-dibromo-2-(3-bromo-1-(3-chloropyridin-2-yl)-1H-pyrazole-5-carboxamido)phenyl)carbamate] as the compound, how does the pest or weed control at 100 ppm read?
A: ≥ 80%

Q: How did the pest or weed control at 100 ppm turn out when CC(C)COC(=O)Nc1cc(Br)cc(Br)c1NC(=O)c1cc(Br)nn1-c1ncccc1Cl [Example 41, isobutyl (3,5-dibromo-2-(3-bromo-1-(3-chloropyridin-2-yl)-1H-pyrazole-5-carboxamido)phenyl)carbamate] was run?
A: ≥ 80%

Q: COC(=O)Nc1cc(C(F)(F)F)cc(Cl)c1NC(=O)c1cc(Br)nn1-c1ncccc1Cl [Example 48, methyl (2-(3-bromo-1-(3-chloropyridin-2-yl)-1H-pyrazole-5-carboxamido)-3-chloro-5-(trifluoromethyl)phenyl)carbamate] was tested. Which pest or weed control at 100 ppm did it give?
A: ≥ 80%

Q: Which pest or weed control at 100 ppm does the source give for COC(=O)Nc1cc(C(F)(F)F)cc(Br)c1NC(=O)c1cc(Br)nn1-c1ncccc1Cl [Example 51, methyl (3-bromo-2-(3-bromo-1-(3-chloropyridin-2-yl)-1H-pyrazole-5-carboxamido)-5-(trifluoromethyl)phenyl)carbamate] here?
A: ≥ 80%

Q: How did the pest or weed control at 100 ppm turn out when COC(=O)Nc1cc([N+](=O)[O-])cc(C)c1NC(=O)c1cc(Br)nn1-c1ncccc1Cl [Example 55, Methyl (2-(3-bromo-1-(3-chloropyridin-2-yl)-1H-pyrazole-5-carboxamido)-3-methyl-5-nitrophenyl)carbamate] was run?
A: ≥ 80%

Q: For COC(=O)Nc1cc(C#N)cc(C)c1NC(=O)c1cc(Cl)nn1-c1ncccc1Cl [Example 56, methyl (2-(3-chloro-1-(3-chloropyridin-2-yl)-1H-pyrazole-5-carboxamido)-5-cyano-3-methylphenyl)carbamate], which pest or weed control at 100 ppm is on record?
A: ≥ 80%

Q: How did the pest or weed control at 100 ppm turn out when COC(=O)Nc1cc(C#N)cc(C)c1NC(=O)c1cc(C#N)nn1-c1ncccc1Cl [Example 57, methyl (2-(1-(3-chloropyridin-2-yl)-3-cyano-1H-pyrazole-5-carboxamido)-5-cyano-3-methylphenyl)carbamate] was run?
A: ≥ 80%

Q: COC(=O)Nc1cc(C#N)cc(C)c1NC(=O)c1cc(OC)nn1-c1ncccc1Cl [Example 58, methyl (2-(1-(3-chloropyridin-2-yl)-3-methoxy-1H-pyrazole-5-carboxamido)-5-cyano-3-methylphenyl)carbamate] was tested. Which pest or weed control at 100 ppm did it give?
A: ≥ 80%

Q: How did the pest or weed control at 100 ppm turn out when COC(=O)Nc1cc(C#N)cc(C)c1NC(=O)c1cc(OCC(F)(F)F)nn1-c1ncccc1Cl [Example 60, methyl (2-(3-(2,2,2-trifluoroethoxy)-1-(3-chloropyridin-2-yl)-1H-pyrazole-5-carboxamido)-5-cyano-3-methylphenyl)carbamate] was run?
A: ≥ 80%

Q: How did the pest or weed control at 100 ppm turn out when COC(=O)Nc1cc(C#N)cc(C)c1NC(=O)c1cc(C(F)(F)F)nn1-c1ncccc1Cl [Example 61, methyl (2-(1-(3-chloropyridin-2-yl)-3-(trifluoromethyl)-1H-pyrazole-5-carboxamido)-5-cyano-3-methylphenyl)carbamate] was run?
A: ≥ 80%

Q: With COC(=O)Nc1cc(C#N)cc(C)c1NC(=O)c1cc(C(F)(F)F)nn1-c1ccccc1Cl [Example 62, methyl (2-(1-(2-chlorophenyl)-3-(trifluoromethyl)-1H-pyrazole-5-carboxamido)-5-cyano-3-methylphenyl)carbamate] as the compound, how does the pest or weed control at 100 ppm read?
A: ≥ 80%

Q: CCOC(=O)Nc1cc(C#N)cc(C)c1NC(=O)c1cc(Br)nn1-c1ncccc1Cl [Example 63, ethyl (2-(3-bromo-1-(3-chloropyridin-2-yl)-1H-pyrazole-5-carboxamido)-5-cyano-3-methylphenyl)carbamate] was tested. Which pest or weed control at 100 ppm did it give?
A: ≥ 80%

Q: Cc1cc(C#N)cc(NC(=O)OCCCl)c1NC(=O)c1cc(Br)nn1-c1ncccc1Cl [Example 64, 2-chloroethyl (2-(3-bromo-1-(3-chloropyridin-2-yl)-1H-pyrazole-5-carboxamido)-5-cyano-3-methylphenyl)carbamate] was tested. Which pest or weed control at 100 ppm did it give?
A: ≥ 80%

Same assay, conditions: 96 h, read-out: percent control value

Q: With COC(=O)Nc1cccc(C)c1NC(=O)c1cc(Br)nn1-c1ncccc1Cl [Example 54, Methyl (2-(3-bromo-1-(3-chloropyridin-2-yl)-1H-pyrazole-5-carboxamido)-3-methylphenyl)carbamate] as the compound, how does the pest or weed control at 100 ppm read?
A: ≥ 80%
